Common to all, as to type: cell-based
The subject of one assay is Corynebacterium Ax 20. The assay is described as follows: Inhibition of release of 3-hydroxy-3-methyl-hexanoic acid from Nα-(3-hydroxy-3-methyl-hexanoyl)-glutamine by bacterial cells (GC-analysis). As to conditions: for inhibition at 100 ppm / inhibition at 10 ppm / inhibition at 500 ppm / inhibition at 1000 ppm: Corynebacterium; for efficacy as inhibitors: general statement in the description; for inhibitory activity compared to compound II: relative to compound II; for inhibition of malodour release: Compound Ia; for inhibition at 500 ppm: 500 ppm test compound; for inhibition at 1000 ppm: 1000 ppm test compound; for kind of inhibition (true inhibitor or alternative substrate): conclusion from Tables 1 and 2, prolonged preincubation; for IC 50 (Concentration for 50% inhibition of malodour release): estimated from the data in Table 1. The protocol:
(§1) Corynebacterium Ax 20 was grown overnight, harvested and resuspended in a phosphate buffer (50 mM, pH 7.5). Different compounds were dissolved in dimethylsulfoxide and added to the cells at a final concentration of 10 ppm, 100 ppm 500 ppm and 1000 ppm. The cells were then preincubated with the test agent for 30 min, 4 h, 8 h or 24 h. After this pre-incubation period, the natural substrate Nα-(3-hydroxy-3-methyl-hexanoyl)-glutamine was added (1 mM final concentration) and the cells were further incubated for 90 min. The released 3-hydroxy-3-methyl-hexanoic acid was determined by GC-analysis and compared to control samples to assess the […] malodor reducing capacity of a given compound in the bacterial cells. The samples were then further analysed to determine the cleavage of the synthetic compound by the action of the bacterial enzymes.

The test system of another assay is Ax30. The assay is described as follows: Inhibition of release of 3-hydroxy-3-methyl-hexanoic acid in different bacterial species. As to conditions: Arthrobacter woluwensis. As to the method:
as §1, with “The cells were then preincubated with the test agent for 30 min, 4 h, 8 h or 24 h.” left out
(§2) The inhibition of malodour release was tested on different bacterial species, all isolated from the human axilla. The method from Example 2 was used.

The subject of a further assay is Ax52. The assay is described as above. To be noted: Corynebacterium mucifaciens. As to the method:
as §1, with “The cells were then preincubated with the test agent for 30 min, 4 h, 8 h or 24 h.” left out
as §2

The subject of another assay is Ax73. Described as above. As to conditions: Corynebacterium coyleae. As to the method:
as §1, with “The cells were then preincubated with the test agent for 30 min, 4 h, 8 h or 24 h.” left out
as §2

In another assay the test system is Ax43. Described as above. As to conditions: Corynebacterium tuberculostearicum. The protocol:
as §1, §2

In assay [1] the test system is Ax20, Ax30, Ax43, Ax52, Ax73. The experiment in a line: Inhibition of release of 3-hydroxy-3-methyl-hexanoic acid, average over bacterial species. As to conditions: for inhibition at 10 ppm / inhibition at 100 ppm: average of Ax20, Ax30, Ax43, Ax52, Ax73. As to the method: as §1, with “The cells were then preincubated with the test agent for 30 min, 4 h, 8 h or 24 h.” left out
as §2

Setting [2] is: AX20, 100 ppm test compound, method of example 2, preincubation time not stated, read-out: % Inhibition of release of 3-hydroxy-3-methyl-hexanoic acid (100 ppm test compound).
Where [3] appears, read: AX20, preincubation 0.5 h, 10 ppm test compound, read-out: % inhibition of the release of 3-hydroxy-3-methyl-hexanoic acid.
[4] abbreviates: AX20, preincubation 0.5 h, 100 ppm test compound, read-out: % inhibition of the release of 3-hydroxy-3-methyl-hexanoic acid.
Where [5] appears, read: AX20, preincubation 4 h, 10 ppm test compound, read-out: % inhibition of the release of 3-hydroxy-3-methyl-hexanoic acid.
[6] abbreviates: AX20, preincubation 4 h, 100 ppm test compound, read-out: % inhibition of the release of 3-hydroxy-3-methyl-hexanoic acid.
[7] abbreviates: AX20, preincubation 8 h, 10 ppm test compound, read-out: % inhibition of the release of 3-hydroxy-3-methyl-hexanoic acid.
The mark [8] stands for this setting: AX20, preincubation 8 h, 100 ppm test compound, read-out: % inhibition of the release of 3-hydroxy-3-methyl-hexanoic acid.
Where [9] appears, read: AX20, preincubation 24 h, 10 ppm test compound, read-out: % inhibition of the release of 3-hydroxy-3-methyl-hexanoic acid.
Where [10] appears, read: AX20, preincubation 24 h, 100 ppm test compound, read-out: % inhibition of the release of 3-hydroxy-3-methyl-hexanoic acid.

The structures appear in SMILES notation. Where two headings read alike, the source gives them in different places. A value given as a limit tells only on which side of the number the result lay.

Regarding `NC(=O)CC[C@H](NC(=O)NCc1ccccc1)C(=O)O` [Compound Ib, N2-[(benzylamino)carbonyl]-L-glutamine], the inhibition at 100 ppm in the assay on Corynebacterium Ax 20 (setting [2]) is 61%. Also, in the assay on Corynebacterium Ax 20, the efficacy as inhibitors entry was “particularly good efficacy as inhibitors”.

On to `NC(=O)CC[C@H](NC(=O)Nc1cccc(Cc2ccccc2)c1)C(=O)O` [Example 1c, N2-[(3-benzylphenylamino)carbonyl]-L-glutamine], for which the inhibition at 100 ppm with Corynebacterium Ax 20 (setting [2]) was found to be 71%.

`CCCCC(CC)CNC(=O)N[C@@H](CCC(N)=O)C(=O)O` (stereo partly drawn) [Compound Ia, N2-[(2-ethylhexylamino)carbonyl]-L-glutamine]: the “inhibitory activity compared to compound II” value with Corynebacterium Ax 20 (0.5 h preincubation time) is listed as greater than 25 fold; in the assay on Corynebacterium Ax 20 (8 h preincubation time), greater than 100 times. Further, the “inhibition of malodour release” value in the assay on Corynebacterium Ax 20 (10 ppm combined with Cosmocil CQ 100 ppm) stood at 58.8; with Corynebacterium Ax 20 (10 ppm combined with Cosmocil CQ 200 ppm), 75.6; in the assay on Corynebacterium Ax 20 (10 ppm combined with Cosmocil CQ 500 ppm), 85.2; in the assay on Corynebacterium Ax 20 (100 ppm combined with Cosmocil CQ 100 ppm), 85.9; in the assay with Corynebacterium Ax 20 (100 ppm combined with Cosmocil CQ 200 ppm) it was 95.6. For the same compound, the inhibition at 100 ppm in the assay on Corynebacterium Ax 20 (setting [2]) was found to be 79.8%; in the assay with Corynebacterium Ax 20 (AX20, Ax20, preincubation 0.5 h, 100 ppm, read-out: % inhibition of release of 3-hydroxy-3-methyl-hexanoic acid), 81%; in the assay on Corynebacterium Ax 20 (AX20, Ax20, preincubation 2 h, 100 ppm, read-out: % inhibition of release of 3-hydroxy-3-methyl-hexanoic acid), 86%; with Corynebacterium Ax 20 (AX20, Compound Ia, 100 ppm alone (Cosmocil CQ 0 ppm), read-out: inhibition of malodour release), 75.8%; with Corynebacterium Ax 20 (setting [4]), 75.8%; with Corynebacterium Ax 20 (setting [6]), 81.2%. Moreover, the inhibition at 100 ppm in the assay with Corynebacterium Ax 20 (setting [8]) was 86%; with Corynebacterium Ax 20 (setting [10]), 83.2%; with Ax30 (preincubation 0.5 h) it was 100%; in the assay with Ax30 (preincubation 2 h), 100%; in the assay with Ax52 (preincubation 0.5 h), 83%; in the assay on Ax52 (preincubation 2 h), 94%. Also, the inhibition at 100 ppm came out at 87% in the assay on Ax73 (preincubation 0.5 h); 94% in the assay on Ax73 (preincubation 2 h); 97% in the assay with Ax43 (preincubation 0.5 h); 99% in the assay with Ax43 (preincubation 2 h); 89.6% in assay [1] (preincubation 0.5 h); 94.6% in assay [1] (preincubation 2 h). The inhibition at 10 ppm came to 51% in the assay with Corynebacterium Ax 20 (AX20, Ax20, preincubation 0.5 h, 10 ppm, read-out: % inhibition of release of 3-hydroxy-3-methyl-hexanoic acid); 50% in the assay with Corynebacterium Ax 20 (AX20, Ax20, preincubation 2 h, 10 ppm, read-out: % inhibition of release of 3-hydroxy-3-methyl-hexanoic acid); 61% with Corynebacterium Ax 20 (AX20, Compound Ia, 10 ppm alone (Cosmocil CQ 0 ppm), read-out: inhibition of malodour release); 61% in the assay on Corynebacterium Ax 20 (setting [3]); 52.2% with Corynebacterium Ax 20 (setting [5]); 65.2% in the assay on Corynebacterium Ax 20 (setting [7]). Moreover, the inhibition at 10 ppm in the assay with Corynebacterium Ax 20 (setting [9]) came out at 19.9%; in the assay on Ax30 (preincubation 0.5 h), 95%; in the assay on Ax30 (preincubation 2 h), 93%; with Ax52 (preincubation 0.5 h) it was 77%; in the assay with Ax52 (preincubation 2 h), 86%; with Ax73 (preincubation 0.5 h), 107%. Besides, the inhibition at 10 ppm in the assay on Ax73 (preincubation 2 h) was found to be 70%; in the assay with Ax43 (preincubation 0.5 h) it was 93%; in the assay on Ax43 (preincubation 2 h), 97%; in assay [1] (preincubation 0.5 h), 84.6%; in assay [1] (preincubation 2 h), 79.2%. The inhibition at 500 ppm amounted to 92.4% in the assay with Corynebacterium Ax 20 (AX20, preincubation 0.5 h); 100% in the assay with Corynebacterium Ax 20 (AX20, preincubation 4 h); 100% with Corynebacterium Ax 20 (AX20, preincubation 8 h); 100% with Corynebacterium Ax 20 (AX20, preincubation 24 h). Also, the inhibition at 1000 ppm came to 92.5% with Corynebacterium Ax 20 (AX20, preincubation 0.5 h); 91.5% in the assay on Corynebacterium Ax 20 (AX20, preincubation 4 h); 91.8% in the assay on Corynebacterium Ax 20 (AX20, preincubation 8 h); 89.6% in the assay on Corynebacterium Ax 20 (AX20, preincubation 24 h). In the assay with Corynebacterium Ax 20, the “kind of inhibition (true inhibitor or alternative substrate)” value is reported as “true inhibitor”. Besides, the efficacy as inhibitors entry in the assay with Corynebacterium Ax 20 is reported as “particularly good efficacy as inhibitors”. In addition, the “IC 50 (Concentration for 50% inhibition of malodour release)” value is listed as less than 10 ppm in the assay with Corynebacterium Ax 20 (preincubation time 0.5 h), less than 10 ppm with Corynebacterium Ax 20 (preincubation time 4 h), less than 10 ppm with Corynebacterium Ax 20 (preincubation time 8 h) and 52.8 ppm with Corynebacterium Ax 20 (preincubation time 24 h). For the same compound, the “activity in different bacterial species” value in assay [1] (conclusion from Table 4) is recorded as “active in all bacterial species”.

As for `CCCCC(CC)COC(=O)N[C@@H](CCC(N)=O)C(=O)O` (stereo partly drawn) [Compound II, reference compound], the inhibition at 10 ppm in the assay with Corynebacterium Ax 20 (setting [3]) is 2.8%; in the assay with Corynebacterium Ax 20 (setting [5]), -4.4%; in the assay with Corynebacterium Ax 20 (setting [7]) it was 8.3%; in the assay on Corynebacterium Ax 20 (setting [9]), -1%. For the same compound, the inhibition at 100 ppm was 33.4% with Corynebacterium Ax 20 (setting [4]), -25.2% in the assay on Corynebacterium Ax 20 (setting [6]), -9.8% in the assay on Corynebacterium Ax 20 (setting [8]) and -13.3% with Corynebacterium Ax 20 (setting [10]). The inhibition at 500 ppm is 76.6% in the assay on Corynebacterium Ax 20 (AX20, preincubation 0.5 h); 59.9% in the assay with Corynebacterium Ax 20 (AX20, preincubation 4 h); -5.6% with Corynebacterium Ax 20 (AX20, preincubation 8 h); -28.8% in the assay with Corynebacterium Ax 20 (AX20, preincubation 24 h). For the same compound, the inhibition at 1000 ppm in the assay with Corynebacterium Ax 20 (AX20, preincubation 0.5 h) is 83%; with Corynebacterium Ax 20 (AX20, preincubation 4 h), 79.5%; with Corynebacterium Ax 20 (AX20, preincubation 8 h), 41.3%; with Corynebacterium Ax 20 (AX20, preincubation 24 h), -23.1%. Besides, in the assay on Corynebacterium Ax 20, the “kind of inhibition (true inhibitor or alternative substrate)” value is “alternative substrate”. For the same compound, the “IC 50 (Concentration for 50% inhibition of malodour release)” value with Corynebacterium Ax 20 (preincubation time 0.5 h) was 253.3 ppm; in the assay on Corynebacterium Ax 20 (preincubation time 4 h) it was 387.2 ppm; with Corynebacterium Ax 20 (preincubation time 8 h) it was greater than 1000 ppm; in the assay with Corynebacterium Ax 20 (preincubation time 24 h), >>1000 ppm.

Usually inhibition stands for the relative decrease from the control value, in per cent.

(Values after US9198845B2, “Glutamine derivatives as deodorants” (Givaudan S.A., priority 2010, dated 2015).)
